Measurements taken from the METLIN SMRT retention time set (Domingo-Almenara et al. 2019).

Assay: gradient 5% acetonitrile 3 min, to 50% in 2 min, to 85% in 15 min, held 3 min, 100 µL/min
Settings: column: Zorbax Extend-C18 2.1 x 50 mm; eluents: water / acetonitrile, 0.1% formic acid
Procedure, shortened: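 Each retention time is based on an adduct peak selected computationally and verified by manual inspection. Measurements used HPLC–quadrupole time-of-flight mass spectrometry in positive and negative ionization mode on mixtures of ~100 pure standards. Chromatography ran on a Zorbax Extend-C18 column (2.1 × 50 mm, 1.8 μm) at 100 μL/min with water and acetonitrile, each containing 0.1% formic acid, and dead and dwell volumes of 40 μL and 900 μL.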

Question: For `Cc1cccc(CN2N=C(C(=O)N3CCC(C)CC3)S(=O)(=O)c3ccccc32)c1`, which RP-LC retention time is on record?
Answer: The RP-LC retention time was 1090 s.

Question: For `O=C1CC(c2ccccc2)N(Cc2ccc3c(c2)CCO3)CCCCCCN1` (configuration not stated), which RP-LC retention time is on record?
Answer: Its RP-LC retention time is 668 s.

Question: For `COCCNC(=O)CN1CCN(c2cc(C(=O)O)c3cc(NC(=O)C(C)(C)C)ccc3n2)CC1`, which RP-LC retention time is on record?
Answer: The RP-LC retention time was 561 s.

Question: With `CCOc1ccc(NC(=O)N2CCC(N(C)C(C)C)CC2)cc1` as the compound, how does the RP-LC retention time read?
Answer: The RP-LC retention time was 588 s.

Question: For `O=C(c1cn2nc(Cl)ccc2n1)N1CCN(c2ccc(Cl)cc2)CC1`, which RP-LC retention time is on record?
Answer: The RP-LC retention time was 858 s.

Question: With `Cc1nn(CC(=O)O)c(=O)c2nc(-c3ccccc3)sc12` as the compound, how does the RP-LC retention time read?
Answer: Its RP-LC retention time is 701 s.

Question: Which RP-LC retention time does the source give for `CO[C@H]1CN(C2CCN(Cc3ccc(C)o3)CC2)[C@H]1c1ccncc1` here?
Answer: Its RP-LC retention time is 588 s.

Question: For `CCC(=O)N1CCC2(CC1)c1nccn1-c1ccccc1CN2CC(C)C`, which RP-LC retention time is on record?
Answer: The RP-LC retention time was 632 s.

Question: With `CCc1noc(NC(C)=O)c1-c1ccc(OC)c(S(=O)(=O)NCc2ccc(C)cc2)c1` as the compound, how does the RP-LC retention time read?
Answer: The RP-LC retention time was 802 s.

Question: Which RP-LC retention time does the source give for `O=C(CN1CCN(Cc2ccccc2)CC1)Nc1nc(-c2ccccc2)cs1` here?
Answer: Its RP-LC retention time is 700 s.

Question: With `CC(C)(C)c1ccc(-c2nc(N3CCCC3)c3ccccc3n2)cc1` as the compound, how does the RP-LC retention time read?
Answer: The RP-LC retention time was 906 s.

Question: For `Cc1c(C(N)=O)nnn1-c1ccccc1`, which RP-LC retention time is on record?
Answer: The RP-LC retention time was 645 s.

Question: For `O=C(c1sc2ncccc2c1-n1cccc1)N1CCN(c2ncccn2)CC1`, which RP-LC retention time is on record?
Answer: The RP-LC retention time was 866 s.

Question: With `Cc1oc(-c2[nH]ncc2C(=O)N2CCOCC2)cc1S(=O)(=O)N1CCN(C)CC1` as the compound, how does the RP-LC retention time read?
Answer: The RP-LC retention time was 553 s.

Question: For `O=C(Cn1c(=O)cc(-c2nc(C3CC3)no2)c2ccccc21)NCc1ccc(Cl)cc1`, which RP-LC retention time is on record?
Answer: Its RP-LC retention time is 979 s.

Question: For `O=C(CN1c2ccc(F)cc2-c2ccccc2S1(=O)=O)NCCN1CCOCC1`, which RP-LC retention time is on record?
Answer: The RP-LC retention time was 624 s.

Question: With `O=C(CCc1ccc2cc[nH]c2c1)NCc1ccccc1` as the compound, how does the RP-LC retention time read?
Answer: The RP-LC retention time was 794 s.

Question: With `CCCCNC(=O)Cc1c(OC)ccc2cc(Br)ccc12` as the compound, how does the RP-LC retention time read?
Answer: Its RP-LC retention time is 947 s.

Question: With `CC(=O)c1ccc(N2CCN(C(=O)CN3C(=O)C(C)(C)c4cc(C)ccc43)CC2)cc1` as the compound, how does the RP-LC retention time read?
Answer: The RP-LC retention time was 855 s.

Question: For `CC(C)CNC(=O)C1CCCN(c2ncnc3c2oc2ccccc23)C1` (configuration not stated), which RP-LC retention time is on record?
Answer: The RP-LC retention time was 725 s.

Question: For `O=C(NC1CCCC1)C1CCCCN1S(=O)(=O)c1ccc(Br)cc1` (configuration not stated), which RP-LC retention time is on record?
Answer: The RP-LC retention time was 1040 s.

Question: With `CCCNC(=O)C1CCN(c2ccc(SCC(=O)Nc3cccc(C(F)(F)F)c3)nn2)CC1` as the compound, how does the RP-LC retention time read?
Answer: Its RP-LC retention time is 723 s.

Question: With `O=C1COc2cc(Cl)ccc2N1Cc1nc(-c2ccccc2)no1` as the compound, how does the RP-LC retention time read?
Answer: Its RP-LC retention time is 1060 s.

Question: Which RP-LC retention time does the source give for `Cc1ccc(NC(=O)Cn2c(=O)cc(-c3nc(C(C)C)no3)c3ccccc32)c(Cl)c1` here?
Answer: Its RP-LC retention time is 1110 s.

Question: With `CC(=O)N1CCN(c2nc3c(s2)CC(C(=O)Nc2ccc(Cl)c(C)c2)CC3)CC1` (configuration not stated) as the compound, how does the RP-LC retention time read?
Answer: The RP-LC retention time was 652 s.

Question: With `Cc1nc(-c2ccncc2)nc2c1CCC(=O)N2CCc1ccccn1` as the compound, how does the RP-LC retention time read?
Answer: Its RP-LC retention time is 541 s.

Question: With `CCn1cc(-c2nc(CC(=O)Nc3ccc(F)cc3)cs2)c2cccnc21` as the compound, how does the RP-LC retention time read?
Answer: The RP-LC retention time was 894 s.

Question: Which RP-LC retention time does the source give for `Cc1cccc(N2C(=O)CN(CCc3ccccc3F)[C@H]3CS(=O)(=O)C[C@H]32)c1` here?
Answer: The RP-LC retention time was 840 s.

Question: For `O=C(Cn1cnc2onc(-c3ccc(Cl)cc3)c2c1=O)N1CCCc2ccccc21`, which RP-LC retention time is on record?
Answer: The RP-LC retention time was 1100 s.

Question: Which RP-LC retention time does the source give for `COc1ccc2c(c1)C1(CCN(S(=O)(=O)c3ccccc3F)C1)C(=O)N2` (configuration not stated) here?
Answer: Its RP-LC retention time is 808 s.

Question: With `Cc1ccc(-c2noc(-c3nc(Cc4ccccc4)no3)n2)cc1` as the compound, how does the RP-LC retention time read?
Answer: The RP-LC retention time was 1240 s.

Question: For `Cn1cc2c3c(cccc31)CN(C(=O)c1ccc(Cl)cc1)CC2`, which RP-LC retention time is on record?
Answer: Its RP-LC retention time is 988 s.

Question: Which RP-LC retention time does the source give for `CC(C)Oc1ccc(-c2noc(Cn3nc(-c4ccc5c(c4)OCO5)ccc3=O)n2)cc1` here?
Answer: The RP-LC retention time was 1080 s.

Question: Which RP-LC retention time does the source give for `COc1ccccc1CNC(=O)C1CCC(=O)N1S(=O)(=O)c1ccc(C)c(C)c1` (configuration not stated) here?
Answer: Its RP-LC retention time is 913 s.

Question: Which RP-LC retention time does the source give for `CCOC(=O)NCc1nc(COc2ccc(OC)cc2)no1` here?
Answer: Its RP-LC retention time is 727 s.

Question: Which RP-LC retention time does the source give for `CCn1c(=O)c2c(nc(/C=C/c3ccc(OC)c(OC)c3)n2C)n(CC)c1=O` here?
Answer: The RP-LC retention time was 869 s.

Question: Which RP-LC retention time does the source give for `CC1=C(c2ccc(C)cc2)S(=O)(=O)N=C1N1CCC(NC(=O)c2sccc2C)CC1` here?
Answer: The RP-LC retention time was 596 s.

Question: Which RP-LC retention time does the source give for `CN(C)C(=O)c1ccc2c(c1)N(CC(=O)Nc1ccc(F)cc1)C(=O)CS2` here?
Answer: The RP-LC retention time was 704 s.

Question: For `CC(C)OC(=O)COC(=O)c1cn(-c2cccc(Cl)c2)c(=O)c2ccccc12`, which RP-LC retention time is on record?
Answer: The RP-LC retention time was 1140 s.

Question: Which RP-LC retention time does the source give for `C[C@@H](C(=O)O)c1ccc(-c2ccccc2)c(F)c1` here?
Answer: The RP-LC retention time was 974 s.

Question: Which RP-LC retention time does the source give for `CCCCN1CC(c2nc3ccccc3n2CC(=O)N(C)c2ccccc2)CC1=O` (configuration not stated) here?
Answer: The RP-LC retention time was 700 s.

Question: Which RP-LC retention time does the source give for `O=C(Cn1cnc2nc(N3CCC(C(=O)NC4CC4)CC3)sc2c1=O)NC1CCCC1` here?
Answer: Its RP-LC retention time is 609 s.

Question: With `Cc1cc(C(=O)N2CCOCC2)c2cc(Cl)ccc2n1` as the compound, how does the RP-LC retention time read?
Answer: Its RP-LC retention time is 640 s.

Question: Which RP-LC retention time does the source give for `CCSc1nnc(NC(=O)c2ccc(OC)c([N+](=O)[O-])c2)s1` here?
Answer: The RP-LC retention time was 802 s.

Question: For `O=c1c2sccc2n(Cc2nc(-c3ccccc3)no2)c(=O)n1Cc1ccccc1`, which RP-LC retention time is on record?
Answer: The RP-LC retention time was 985 s.

Question: For `O=C(NC1CCCCCCC1)C1CCN(C(=O)c2cc(-c3cccnc3)n[nH]2)CC1`, which RP-LC retention time is on record?
Answer: Its RP-LC retention time is 651 s.

Question: For `Cn1cc2c3c(cccc31)CN(C(=O)c1cccs1)CC2`, which RP-LC retention time is on record?
Answer: Its RP-LC retention time is 876 s.

Question: With `O=C(NCc1nnnn1C1CCCCC1)C1CC1` as the compound, how does the RP-LC retention time read?
Answer: Its RP-LC retention time is 647 s.

Question: For `O=C(NCCCN1CCOCC1)c1cc2n(n1)CCCN(Cc1ccccc1)C2=O`, which RP-LC retention time is on record?
Answer: Its RP-LC retention time is 594 s.

Question: With `c1ccc(-n2nnnc2N2CCN(c3ccccn3)CC2)cc1` as the compound, how does the RP-LC retention time read?
Answer: The RP-LC retention time was 571 s.

Question: For `COc1ccc(NC(=O)N2CCC3(CC2)N=C(c2cccc(F)c2)C(=O)N3)c(OC)c1`, which RP-LC retention time is on record?
Answer: Its RP-LC retention time is 786 s.

Question: Which RP-LC retention time does the source give for `Cc1noc2ncn(CC(=O)NCc3cccc(Br)c3)c(=O)c12` here?
Answer: Its RP-LC retention time is 779 s.

Question: Which RP-LC retention time does the source give for `Cc1cc2nn(CC(=O)Nc3ccc(C)c(F)c3)c(=O)n2c(N2CCCC2)n1` here?
Answer: Its RP-LC retention time is 805 s.

Question: Which RP-LC retention time does the source give for `COCCNC(=O)C1c2cc(OC)c(OC)cc2C(=O)N(C)C1c1ccc(OC)c(OC)c1` (configuration not stated) here?
Answer: The RP-LC retention time was 642 s.

Question: Which RP-LC retention time does the source give for `CCC1CCCCN1C(=O)c1cnc2nc(C)ccc2c1Nc1cccc(C(=O)OC)c1` (configuration not stated) here?
Answer: The RP-LC retention time was 653 s.

Question: With `CCOc1ccc(NC(=O)N2CCC3(C2)C(=O)Nc2ccc(OC)cc23)cc1` (configuration not stated) as the compound, how does the RP-LC retention time read?
Answer: Its RP-LC retention time is 731 s.

Question: With `Cc1cnc(C(=O)NC2C[C@H]3CC[C@@H](C2)N3C(=O)C2CC2)cn1` (some centres not stated) as the compound, how does the RP-LC retention time read?
Answer: Its RP-LC retention time is 606 s.

Question: Which RP-LC retention time does the source give for `COCc1nnc(NC(=O)c2ccccc2OCc2nc(-c3ccccc3)no2)s1` here?
Answer: Its RP-LC retention time is 1080 s.

Question: Which RP-LC retention time does the source give for `O=C(Cn1c(=O)c(S(=O)(=O)c2ccccc2)cc2ccccc21)N1CCCC1` here?
Answer: Its RP-LC retention time is 757 s.

Question: With `Cc1cccc(-n2ncc(C(=O)N3CCN(c4ccccn4)CC3)c2-n2cccc2)c1` as the compound, how does the RP-LC retention time read?
Answer: Its RP-LC retention time is 688 s.

Question: With `O=C1NCCCCCCN(C(=O)c2ccsc2)[C@H]2CCCC[C@@H]12` as the compound, how does the RP-LC retention time read?
Answer: Its RP-LC retention time is 786 s.

Question: For `Cc1ccc(C(=O)N2CCCn3cc(-c4ccccc4F)nc32)cn1`, which RP-LC retention time is on record?
Answer: Its RP-LC retention time is 627 s.

Question: With `Cc1cc(-c2nnc(-c3ccc(F)cc3)o2)c(C)n1CC(=O)Nc1ccc(F)cc1` as the compound, how does the RP-LC retention time read?
Answer: The RP-LC retention time was 964 s.

Question: With `CCN(CC)CCNc1ncnc2onc(-c3cc(F)cc(F)c3)c12` as the compound, how does the RP-LC retention time read?
Answer: Its RP-LC retention time is 651 s.

Question: With `CCOc1ccc(S(=O)(=O)N2CCCC(C(=O)NCc3ccccc3)C2)cc1` (configuration not stated) as the compound, how does the RP-LC retention time read?
Answer: The RP-LC retention time was 878 s.

Question: For `Cc1nn(-c2ccc(F)cc2)c2nc(N3CCCC(C(=O)NC4CCCCC4)C3)sc12` (configuration not stated), which RP-LC retention time is on record?
Answer: The RP-LC retention time was 1190 s.

Question: With `COc1ccc(N2CCN(C(=O)Cc3csc4nc(-c5ccc(OC)c(OC)c5)cn34)CC2)cc1` as the compound, how does the RP-LC retention time read?
Answer: The RP-LC retention time was 686 s.
